Marks after values point to notes of the source that are not given here.
Legend:
human MC-5R [1] = target: T1, human MC-5R (Homo sapiens, UniProt P33032); assay: Membrane binding assay, competition with 125I-NDP-alpha-MSH; conditions: human receptor; average of at least 3 determinations
T1 construct: expressed in transfected cells; host or cells: CHO- or L-cells or other eukaryotic cells
Method: (§1) A. Binding Assay. The membrane binding assay was used to identify competitive inhibitors of ^125I-NDP-alpha-MSH binding to cloned human MCRs expressed in L- or CHO-cells.
(§2) Cell lines expressing melanocortin receptors were grown in T-180 flasks containing selective medium of the composition: 1 L Dulbecco's modified Eagles Medium (DMEM) with 4.5 g L-glucose, 25 mM Hepes, without sodium pyruvate, (Gibco/BRl); 100 ml 10% heat-inactivated fetal bovine serum (Sigma); 10 ml 10,000 unit/ml penicillin & 10,000 ug/ml streptomycin (Gibco/BRl); 10 ml 200 mM L-glutamine (Gibco/BRl); 1 mg/ml Geneticin (G418) (Gibco/BRl). The cells were grown at 37° C. with CO2 and humidity control until the desired cell density and cell number was obtained.
(§3) The medium was poured off and 10 mls/monolayer of enzyme-free dissociation media (Specialty Media Inc.) was added. The cells were incubated at 37° C. for 10 minutes or until cells sloughed off when flask was banged against hand.
(§4) The cells were harvested into 200 ml centrifuge tubes and spun at 1000 rpm, 4° C., for 10 min. […]
(§5) IC50's were determined in a competition binding assay with ^125I-NDP-alpha-MSH as ligand using crude membranes prepared from cell lines expressing the appropriate MC-R. Functional EC50's were determined by application of compound to intact cells followed by direct measurement of cAMP as described in the Biological Assays section above.

human MC-1R = target: T2, human MC-1R (Homo sapiens, UniProt Q01726); assay: Functional cell based cAMP assay; conditions: cAMP relative to alpha-MSH at 10 μM defined as 100% agonist
T2 construct: expressed in transfected cells; host or cells: CHO- or L-cells or other eukaryotic cells
Excerpt: (§6) B. Functional assay. Functional cell based assays were developed to discriminate melanocortin receptor agonists from antagonists.
(§7) Cells (for example, CHO- or L-cells or other eukaryotic cells) expressing a human melanocortin receptor (see e.g. Yang-YK; Ollmann-MM; Wilson-BD; Dickinson-C; Yamada-T; Barsh-GS; Gantz-I; Mol-Endocrinol. 1997 Mar; 11(3): 274-80) were dissociated from tissue culture flasks by rinsing with Ca and Mg free phosphate buffered saline (14190-136, Life Technologies, Gaithersburg, Md.) and detached following 5 minutes incubation at 37° C. with enzyme free dissociation buffer (S-014-B, Specialty Media, Lavellette, N.J.). Cells were collected by centrifugation and resuspended in Earle's Balanced Salt Solution (14015-069, Life Technologies, Gaithersburg, Md.) with additions of 10 mM HEPES pH 7.5, 5 mM MgCl2, 1 mM glutamine and 1 mg/ml bovine serum albumin. Cells were counted and diluted to 1 to 5×10^6/ml. The phosphodiesterase inhibitor 3-isobutyl-1-methylxanthine was added to cells to 0.6 mM.
(§8) Test compounds were diluted in dimethylsulfoxide (DMSO) (10^−5 to 10^−10 M) and 0.1 volume of compound solution was added to 0.9 volumes of cell suspension; the final DMSO concentration was 1%. After room temperature incubation for 45 min., cells were lysed by incubation at 100° C. for 5 min. to release accumulated cAMP.
(§9) cAMP was measured in an aliquot of the cell lysate with the Amersham (Arlington Heights, Ill.) cAMP detection assay (RPA556). The amount of cAMP production which resulted from an unknown compound was compared to that amount of cAMP produced in response to alpha-MSH at 10 μM which was defined as a 100% agonist.
as §5

human MC-3R = target: T3, human MC-3R (Homo sapiens, UniProt P41968); assay: Functional cell based cAMP assay; conditions: cAMP relative to alpha-MSH at 10 μM defined as 100% agonist
T3 construct: expressed in transfected cells; host or cells: CHO- or L-cells or other eukaryotic cells
Excerpt: as §6, §7, §8, §9, §5

human MC-5R [2] = target: T1, human MC-5R; assay: Functional cell based cAMP assay
Excerpt: as §6, §7, §8, §9, §5

[3] = test system: conscious rat model of reflexogenic erections; assay: Rat ex copula assay, conscious rat model of reflexogenic erections; type: in vivo; conditions: for penile erections, % Increase from Vehicle or Baseline: rats; for efficacy of reference drugs in conscious rat model of reflexogenic erections: positive reference controls
Method: Sexually mature male Caesarian Derived Sprague Dawley (CD) rats (over 60 days old) are used with the suspensory ligament surgically removed to prevent retraction of the penis back into the penile sheath during the ex copula evaluations. Animals receive food and water ad lib and are kept on a normal light/dark cycle. Studies are conducted during the light cycle.
1) Conditioning to Supine Restraint for Ex Copula Reflex Tests. This conditioning takes ˜4 days. Day 1, the animals are placed in a darkened restrainer and left for 15-30 minutes. Day 2, the animals are restrained in a supine position in the restrainer for 15-30 minutes. Day 3, the animals are restrained in the supine position with the penile sheath retracted for 15-30 minutes. Day 4, the animals are restrained in the supine position with the penile sheath retracted until penile responses are observed. Some animals require additional days of conditioning before they are completely acclimated to the procedures; non-responders are removed from further evaluation. After any handling or evaluation animals are given a treat to ensure positive reinforcement.
2) Ex Copula Reflex Tests. Rats are gently restrained in a supine position with their anterior torso placed inside a cylinder of adequate size to allow for normal head and paw grooming. For a 400-500 gram rat, the diameter of the cylinder is approximately 8 cm. The lower torso and hind limbs are restrained with a non-adhesive material (vetrap). An additional piece of vetrap with a hole in it, through which the glans penis will be passed, is fastened over the animal to maintain the preputial sheath in a retracted position. Penile responses will be observed, typically termed ex copula genital reflex tests. Typically, a series of penile erections will occur spontaneously within a few minutes after sheath retraction. The types of normal reflexogenic erectile responses include elongation, engorgement, cup and flip. An elongation is classified as an extension of the penile body. Engorgement is a dilation of the glans penis. A cup is defined as an intense erection where the distal margin of the glans penis momentarily flares open to form a cup. A flip is a dorsiflexion of the penile body.
Baseline and or vehicle evaluations are conducted to determine how and if an animal will respond. Some animals have a long duration until the first response while others are non-responders altogether. During this baseline evaluation latency to first response, number and type of responses are recorded. The testing time frame is 15 minutes after the first response.
[…] All evaluations are videotaped and scored later. Data are collected and analyzed using paired 2 tailed t-tests to compared baseline and/or vehicle evaluations to drug treated evaluations for individual animals. Groups of a minimum of 4 animals are utilized to reduce variability.
Positive reference controls are included in each study to assure the validity of the study. Animals can be dosed by a number of routes of administration depending on the nature of the study to be performed. The routes of administration includes intravenous (IV), intraperitoneal (IP), subcutaneous (SC) and intracerebral ventricular (ICV).
In this non-random crossover model, rats were placed in the supine position with the preputial sheath retracted to initiate a reflex arc. The number of erections was counted in the 15 minute period following the first erection.

human MC-2R [4] = target: T4, human MC-2R (Homo sapiens, UniProt Q01718); assay: Functional cell based cAMP assay; parameters: expressed in transfected cells; host or cells: L- or CHO-cells; conditions: @ 10 μM; cAMP relative to alpha-MSH defined as 100% agonist
Excerpt: as §6
as §7, with “The phosphodiesterase inhibitor 3-isobutyl-1-methylxanthine was added to cells to 0.6 mM.” left out
cAMP was measured in an aliquot of the cell lysate with the Amersham (Arlington Heights, Ill.) cAMP detection assay (RPA556). […]
as §5

human MC-2R [5] = target: T4, human MC-2R; assay: Membrane binding assay, competition with 125I-NDP-alpha-MSH; parameters: expressed in transfected cells; host or cells: L- or CHO-cells (membranes); conditions: human receptor; average of at least 3 determinations
Method: as §1, §2, §3, §4, §5

erectile dysfunction = conditions: cited from earlier work; for duration of effect / onset of action: after an oral dose, men; for proportion of men/patients with adequate response: oral, erectile dysfunction patients
[6] = test system: animal feeding models (NPY, ob/ob, agouti, fasted); conditions: injected intracerebroventricularly (ICV) in rodents; cited from earlier work
[7] = test system: psychogenic erectile dysfunction; conditions: cited from earlier work
[8] = in vivo; cited from earlier work

T1 sequence (P33032 whole entry): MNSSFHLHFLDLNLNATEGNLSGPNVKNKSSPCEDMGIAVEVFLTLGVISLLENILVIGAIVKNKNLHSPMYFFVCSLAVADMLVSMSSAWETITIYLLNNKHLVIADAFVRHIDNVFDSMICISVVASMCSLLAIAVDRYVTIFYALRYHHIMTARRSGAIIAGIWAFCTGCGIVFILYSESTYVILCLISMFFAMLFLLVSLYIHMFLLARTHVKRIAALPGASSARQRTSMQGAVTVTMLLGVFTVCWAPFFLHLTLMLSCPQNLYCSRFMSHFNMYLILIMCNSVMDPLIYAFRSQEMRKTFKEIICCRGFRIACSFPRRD
T4 sequence (Q01718 whole entry): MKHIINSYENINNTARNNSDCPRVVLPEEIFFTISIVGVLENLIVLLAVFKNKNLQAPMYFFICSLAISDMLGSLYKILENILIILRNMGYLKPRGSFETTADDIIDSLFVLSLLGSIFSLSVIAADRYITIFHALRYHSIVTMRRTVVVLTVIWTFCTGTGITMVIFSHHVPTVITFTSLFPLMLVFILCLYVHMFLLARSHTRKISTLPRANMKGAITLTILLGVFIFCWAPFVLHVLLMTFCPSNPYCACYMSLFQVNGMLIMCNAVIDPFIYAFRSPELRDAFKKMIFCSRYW
T2 sequence (Q01726 whole entry): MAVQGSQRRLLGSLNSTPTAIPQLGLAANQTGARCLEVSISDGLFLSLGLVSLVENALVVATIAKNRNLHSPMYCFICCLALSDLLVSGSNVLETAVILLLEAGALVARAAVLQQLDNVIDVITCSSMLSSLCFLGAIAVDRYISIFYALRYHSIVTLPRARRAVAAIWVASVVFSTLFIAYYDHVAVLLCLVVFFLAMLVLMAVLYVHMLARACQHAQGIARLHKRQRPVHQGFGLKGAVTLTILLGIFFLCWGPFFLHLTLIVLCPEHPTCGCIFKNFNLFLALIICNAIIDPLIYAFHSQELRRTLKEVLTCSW
T3 sequence (P41968 whole entry): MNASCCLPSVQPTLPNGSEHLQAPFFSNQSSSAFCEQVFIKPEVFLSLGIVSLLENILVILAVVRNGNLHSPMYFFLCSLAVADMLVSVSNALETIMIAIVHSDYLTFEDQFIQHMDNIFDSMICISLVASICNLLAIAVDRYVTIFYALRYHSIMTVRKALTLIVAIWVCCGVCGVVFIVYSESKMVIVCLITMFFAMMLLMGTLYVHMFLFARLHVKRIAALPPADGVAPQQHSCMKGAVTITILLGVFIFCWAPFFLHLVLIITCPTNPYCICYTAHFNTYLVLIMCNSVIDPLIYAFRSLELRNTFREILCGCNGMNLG

O=C(N[C@H](Cc1ccc(Cl)cc1)C(=O)N1CCC(Cn2cncn2)(C2CCCCC2)CC1)[C@H]1Cc2ccccc2CN1 [Example 2]
IC50 (human MC-5R [1]): 230 nM
Functional Activity, agonist efficacy, MC-1R (human MC-1R): 84%
Functional Activity, agonist efficacy, MC-3R (human MC-3R): 29%
Functional Activity, agonist efficacy, MC-5R (human MC-5R [2]; cAMP relative to alpha-MSH at 10 μM defined as 100% agonist): 58%
EC50 (human MC-5R [2]; human receptor, cAMP, average of at least 3 determinations): 530 nM
number of erections in conscious rat model of reflexogenic erections ([3]; administered by the intravenous (IV) route or by the oral (PO) route): effective in significantly increasing the number of erections
penile erections, % Increase from Vehicle or Baseline ([3]; 0.3 mg/kg IV, placed supine 60 min after dosing, P = 0.05): 15* %
penile erections, % Increase from Vehicle or Baseline ([3]; 1.0 mg/kg IV, placed supine 0 min after dosing, P = 0.05): 31%
penile erections, % Increase from Vehicle or Baseline ([3]; 1.0 mg/kg IV, placed supine 60 min after dosing, P = 0.05): 35%
penile erections, % Increase from Vehicle or Baseline ([3]; 5.0 mg/kg IV, placed supine 60 min after dosing, P = 0.01): 50** %
penile erections, % Increase from Vehicle or Baseline ([3]; 10 mg/kg IV, placed supine 0 min after dosing, P = 0.01): 45%
penile erections, % Increase from Vehicle or Baseline ([3]; 10 mg/kg IV, placed supine 60 min after dosing, P = 0.01): 38%
penile erections, % Increase from Vehicle or Baseline ([3]; 20 mg/kg PO, placed supine 60 min after dosing, P = 0.01): 24** %
penile erections, % Increase from Vehicle or Baseline ([3]; 20 μG ICV, placed supine 0 min after dosing, P = 0.05): 41* %
Functional Activity, agonist efficacy, MC-2R (human MC-2R [4]): 0% @ 10 μM
IC50 (human MC-2R [5]): > 10000 nM

CN1CCc2cccc3c2[C@H]1Cc1ccc(O)c(O)c1-3 [apomorphine]
efficacy of reference drugs in conscious rat model of reflexogenic erections [3]: effective

Cc1ccc(N(CC2=NCCN2)c2cccc(O)c2)cc1 [phentolamine]
duration of effect (erectile dysfunction): 2 h
onset of action (erectile dysfunction): 5 to 30 min
proportion of men/patients with adequate response (erectile dysfunction): 35-40%

CCCc1nn(C)c2c(=O)[nH]c(-c3cc(S(=O)(=O)N4CCN(C)CC4)ccc3OCC)nc12 [sildenafil]
efficacy of reference drugs in conscious rat model of reflexogenic erections [3]: effective
duration of effect (erectile dysfunction): about 4 hours
onset of action (erectile dysfunction): 30 to 60 min
adverse effects associated with clinical use (erectile dysfunction; clinical use): headache, flushing, dyspepsia, and “abnormal vision
proportion of men/patients with adequate response (erectile dysfunction): about 70%

Ac-Nle-c[Asp-His-DPhe-Arg-Trp-Lys]-NH2 [MT-II]
effect on food intake [6]: reduces food intake
adverse reactions observed ([7]; in vivo): nausea, flushing, loss of appetite, stretching, and yawning
response rate ([7]; injected intramuscularly or subcutaneously to males with psychogenic erectile dysfunction): 75%
duration of action ([7]; men): approximately 2.5 hours
time to onset of erection ([7]; men): 10 to 20 min
absorption into the systemic circulation by the oral route [8]: not absorbed into the systemic circulation

SHU-9119
effect on food intake [6]: reverses this effect and can induce hyperphagia

From US6350760B1, “Substituted piperidines as melanocortin-4 receptor agonists” (Merck & Co., Inc., priority 1999, dated 2002)
